Measurements from US20250101062A1, “ANTIMICROBIAL PEPTIDES” (Board of Regents of the University of Nebraska, priority 2023, published 2025).
Where two headings read alike, the source gives them in different places. Where no end group is shown, it is not given here.

Key:
S. aureus USA300 LAC = assay: microbe, parasite or virus in culture; assay type: cell-based, Staphylococcus aureus
Description: (§1) The following resistant bacterial clinical strains were used in this study: S. aureus USA300 LAC, S. epidermidis 1457, E. coli E423-17, P. aeruginosa E411-17, K. pneumoniae E406-17, and A. baumannii B28-16. While the S. aureus USA300 strain is methicillin-resistant, most of the Gram-negative bacteria contain extended-spectrum beta-lactamase and are resistant to beta-lactam antibiotics. Peptide activity against bacteria was tested using an established lab protocol (Mishra, et al. (2017) Acta Biomater., 49:316-328). In brief, a peptide concentration gradient with twofold dilution was made in the 96-well polystyrene microplate at 10 μL per well. Bacteria were grown to the exponential phase (i.e., optical density at 600 nm≈0.5), diluted to ˜10^5 CFU/mL in different percentages of MHB, TSB, or LB, and partitioned into the 96-well microplate at 90 μL per well. […] They were diluted with autoclaved distilled water to obtain different percentages. The microplates were incubated at 37° C. overnight and read on a ChroMate™ 4300 microplate reader at 600 nm (GMI, Ramsey, MN). The peptide concentration in the wells without bacterial growth is the MIC. As is the convention, MIC values were represented as ranges.
(§2) For pH effects on peptide activity, the pH of the medium was adjusted to a targeted pH for the autoclave and then remeasured at room temperature. For salt and serum effects on peptide activity, stock NaCl solution or human serum was added to the media.
(§3) Peptide activity against bacteria were tested using the CLSI standard procedure with minor modifications (Clinical and Laboratory Standards Institute (2018) Performance standards for antimicrobial susceptibility testing, 9th ed.; Mishra, et al. (2019) Proc. Natl. Acad. Sci., 116(27):13517-13522). In brief, a peptide concentration gradient with twofold dilution was made in the 96-well polystyrene microplate at 10 μL per well. Bacteria were grown to the exponential phase (i.e., optical density at 600 nm≈0.5), diluted to ˜10^5 CFU/mL in MHB, and partitioned into the 96-well microplate at 90 μL per well. The microplates were incubated at 37° C. overnight and read on a ChroMate® 4300 Microplate Reader at 600 nm (GMI, Ramsey, MN). The peptide concentration in the wells without bacterial growth is the minimal inhibitory concentration (MIC). As the convention, MIC values were represented as ranges.
(§4) For pH effects on peptide activity, the pH of the medium was adjusted to a targeted pH for autoclave and then remeasured at room temperature. For salt and serum effects on peptide activity, stock NaCl solution or human serum were added to the media.

MRSA USA300 = assay: Membrane permeabilization (propidium iodide); assay type: cell-based, Staphylococcus aureus; conditions: Example 1, 1×MIC
Description: The peptide ladder was prepared as described for the antibacterial assay with 10 μL of solution in a black COSTAR® 96-well plate. PI (MP Biomedicals, Solon, OH) was prepared in the dark and dissolved in dimethylsulfoxide (Thermo Fisher Scientific, NY) to 20 mM. This PI stock solution was further diluted to 1 mM with water, and 2 μL of 1 mM PI was added to each well. Exponential-phase MRSA USA300 was diluted to OD600 0.11 with TSB, and 88 μL was added to each well. The plate was incubated at 37° C. with continuous shaking in a FLUOstar® Omega (BMG LABTECH, NC) microplate reader. The sample was read every 5 minutes for 24 cycles with excitation and emission wavelengths of 584 and 620 nm, respectively.
Bacterial membrane permeation was conducted (Yeaman, et al. (1998) J. Clin. Invest., 101(1):178-87). In brief, the peptide ladder was prepared as described for the antibacterial assay with 10 μL in a black COSTAR 96-well plate. Propidium iodide (PI) (MP Biomedicals, Solon, OH) was prepared in the dark and dissolved in DMSO (Thermo Fisher Scientific, NY) to 20 mM. This PI stock solution was further diluted to 1 mM with water and 2 μL of 1 mM PI was added to each well. Exponential phase MRSA USA300 or P. aeruginosa E411-17 was diluted to OD600 0.11 with tryptic soy broth (TSB) and 88 μL was added to each well. The plate was incubated at 37° C. with continuous shaking in a FLUOstar® Omega (BMG LABTECH, NC) microplate reader. The sample was read every 5 minutes for 24 cycles with excitation and emission wavelengths at 584 nm and 620 nm, respectively.

E. coli E423-17 [1] = assay: Membrane permeabilization (propidium iodide); assay type: cell-based, Escherichia coli; conditions: Example 1, 1×MIC
[2] = Effect of MHB dilution on antibacterial activity of a panel of antibiotics; assay type: cell-based; conditions: MHB from 100 to 12.5%
Description: FIGS. 2A-2D show biofilm disruption activity of human LL-37 (FIGS. 2A and 2B) and 17BIPHE2 (FIGS. 2C and 2D) against the 24 hour preformed biofilms of S. aureus USA300 LAC in different MHB media: 12.5% MHB (FIGS. 2A and 2C) and 100% MHB (FIGS. 2B and 2D). FIGS. 2E-2H show the treatment outcome of LL-37 (FIGS. 2E and 2F) and 17BIPHE2 (FIGS. 2G and 2H) against the 24-hour preformed biofilms of E. coli E423-17 in different MHB media: 12.5% MHB (FIGS. 2E and 2G) and 100% MHB (FIGS. 2F and 2H). […] Growth curves of S. aureus USA 300 LAC (FIGS. 2J-2K) and P. aeruginosa 152 (FIGS. 2L-2M) in 12.5%, 25%, 50% and 100% MHB or TSB medium (curves from bottom to top).
The effects of MHB dilution on the antimicrobial activity of a panel of antibiotics was also compared (FIG. 2I).

K. pneumoniae E406-17 = assay type: cell-based, Klebsiella pneumoniae
Description: as §1, §3

A. baumannii B28-16 = assay type: cell-based, Acinetobacter baumannii; conditions: B28-16
Description: as §1, §3

[3] = test system: human keratinocyte HaCaT cells; assay: Cell viability assay (MTS); assay type: cell-based
Description: Human keratinocyte HaCaT cells were grown in DMEM/high glucose (Hyclone, UT) containing 10% fetal bovine serum (Mediatech, Corning, Manassas, VA). […] The mixture was incubated at 37° C. in 5% CO2 for 24 hours.
(§5) HepG2 cells were cultured in ATCC-formulated Eagle's Minimum Essential Medium with 10% FBS. A549 cells were grown in ATCC-formulated F-12K Medium containing 10% FBS.

human red blood cells = assay: Hemolytic assay; assay type: cell-based; conditions: red cells of human
Description: The hemolytic effects of peptides were evaluated using a method with minor modifications (Lakshmaiah Narayana, et al. (2021) ACS Infect. Dis., 7:1795-1808). Human red blood cells (hRBCs, UNMC Blood Bank) were washed (3×) with blood bank saline (isotonic solution 0.90% w/v, Fisher). Cells were diluted to 2% using the saline solution, and aliquots of 90 μL were added to a 96-well polystyrene microplate containing 10 μL of serially diluted peptide solutions. After incubation at 37° C. for 1 hour, plates were centrifuged at 500 g for 5 minutes. Aliquots of the supernatant were transferred to a 96-well microplate. The amount of hemoglobin released was measured at 545 nm by using a ChroMate™ microplate reader. […] HC50 is defined as the concentration of the peptide that caused 50% lysis.
The hemolytic effects of peptides were evaluated (Narayana, et al. (2020) Proc. Natl. Acad. Sci., 117(32):19446-9454). In brief, human red blood cells (UNMC Blood Bank) were washed (3×) and diluted to 2% using the saline solution. Aliquots of 90 μL were mixed with 10 μL of serially diluted peptide solutions. After incubation at 37° C. for 1 hour, plates were centrifuged at 500 g for 5 minutes and aliquots of the supernatant were transferred to a new 96-well microplate to measure the amount of hemoglobin released at 545 nm (relative to 1% Triton® X-100) using a ChroMate® Microplate Reader.

P. aeruginosa E411-17 = assay: microbe, parasite or virus in culture; assay type: cell-based, Pseudomonas aeruginosa; conditions: for MIC: read-out: Antimicrobial activity (MIC)
Description: as §1, §2, §3, §4

E. coli E423-17 [4] = assay type: cell-based, Escherichia coli; conditions: E423-17
Description: as §1, §2, §3, §4

S. epidermidis 1457 = assay: microbe, parasite or virus in culture; assay type: cell-based, Staphylococcus epidermidis; conditions: for MIC: read-out: Antimicrobial activity (MIC) S. epidermidis 1457
Description: as §1, §3

Cytotoxicity assay (MTS) = assay type: cell-based; conditions: human, HepG2 cells, read-out: LC50
Description: as §5

P. aeruginosa E416-17 = assay type: cell-based, Pseudomonas aeruginosa
Description: as §3

[5] = USA300, pH 6.21, read-out: Antimicrobial activity (MIC)
[6] = USA300, pH 7.22, read-out: Antimicrobial activity (MIC)
[7] = USA300, pH 8.13, read-out: Antimicrobial activity (MIC)
[8] = USA300, read-out: Antimicrobial activity (MIC)

Row | Substance | MIC (S. aureus USA300 LAC; [5]) [µM] | MIC (S. aureus USA300 LAC; [6]) [µM] | MIC (S. aureus USA300 LAC; [7]) [µM] | MIC (S. aureus USA300 LAC; [8]) [µM] | Antimicrobial activity (MIC) A. baumannii B28-16 (A. baumannii B28-16) [µM] | Hemolysis (HC10), 10% hemolytic concentration (human red blood cells) [µM] | Antimicrobial activity (MIC) P. aeruginosa E411-17 (P. aeruginosa E411-17; E411-17) [µM] | MIC (P. aeruginosa E411-17; E411-17, pH 6.21) [µM] | MIC (P. aeruginosa E411-17; E411-17, pH 8.13) [µM] | Antimicrobial activity (MIC) E. coli E423-17 (E. coli E423-17 [4]) [µM] | CC50 at 24 h (Cytotoxicity assay (MTS)) [µM] | MIC K. pneumoniae E406-17 (K. pneumoniae E406-17) [µM] | MIC P. aeruginosa E416-17 (P. aeruginosa E416-17) [µM] | further results
1 | Gentamicin |  |  |  |  |  |  |  |  |  |  |  |  |  | Antimicrobial activity (MIC) (S. aureus USA300 LAC; MRSA in MHB, 10% serum): 0.5 to 1 µM; Antimicrobial activity (MIC) (S. aureus USA300 LAC; MRSA in MHB, 20% serum): 0.5 µM; Antimicrobial activity (MIC) (S. aureus USA300 LAC; MRSA in MHB, NaCl (150 mM)): 1 µM; Antimicrobial activity (MIC) (S. aureus USA300 LAC; MRSA in MHB, pH 6.3): 1 to 2 µM; Antimicrobial activity (MIC) (S. aureus USA300 LAC; MRSA in MHB, pH 7.2): 0.5 µM; membrane permeabilization (MRSA USA300): no fluorescence increase; membrane permeabilization (E. coli E423-17 [1]): did not permeate the E. coli membrane; change in MIC with dilution of MHB [2]: essentially no changes
2 | KRIWQRWK-NH2 [W540] |  |  |  |  |  |  |  |  |  |  |  |  |  | Activity (MIC) S. aureus (S. aureus USA300 LAC; USA300): >32 µM; Activity (MIC) K. pneumoniae (K. pneumoniae E406-17): >32 µM; Activity (MIC) A. baumannii (A. baumannii B28-16): >32 µM; toxicity to human HaCaT skin cells [3]: more toxic than the other peptides; HC50 (50% hemolysis) (human red blood cells): ~150 µM; Activity (MIC) P. aeruginosa (P. aeruginosa E411-17; E411-17): >32 µM; Activity (MIC) E.coli (E. coli E423-17 [4]): >32 µM
3 | KRWWQWWK-NH2 [KR-8+] | >32 | 8 | 8 | 16 | 16 to 32 | 300 | 8 | 8 | 8 | 4 | 12.5 |  |  | Antimicrobial activity (MIC) (S. aureus USA300 LAC; USA300): 16 to 32 µM; Antimicrobial activity (MIC) S. aureus USA300 (S. aureus USA300 LAC; USA300): 8 to 16 µM; MIC (P. aeruginosa E411-17; E411-17, pH 7.22): 8 µM; Antimicrobial activity (MIC) S. epidermidis 1457 (S. epidermidis 1457): 16 to 32 µM
4 | KWKRFFRGWL-NH2 [RetroLL-10+] |  |  |  |  |  |  |  |  |  |  |  | >32 | 4 | 
5 | LWGRFFRKWK-NH2 [LL-10+] | >32 | 16 | 4 | > 32 | >32 | > 400 | 8 to 16 | 16 | 8 | 32 | > 100 | >32 | 8 | MIC S. aureus USA300 (S. aureus USA300 LAC; USA300): 16 µM; MIC (S. aureus USA300 LAC; USA300, read-out: Antimicrobial activity (MIC) S. aureus USA300): 16 µM; MIC (P. aeruginosa E411-17; E411-17, pH 7.22): 8 µM; MIC (P. aeruginosa E411-17; E411-17): >32 µM; MIC (S. epidermidis 1457): 32 µM; MIC E. coli E423-17 (E. coli E423-17 [4]): 32 µM
6 | RRWWRWWL-NH2 [W544] |  |  |  |  |  |  |  |  |  |  |  |  |  | Activity (MIC) K. pneumoniae (K. pneumoniae E406-17): 8 to 16 µM; Activity (MIC) A. baumannii (A. baumannii B28-16): 8 to 16 µM; toxicity to human HaCaT skin cells [3]: more toxic than the other peptides; HC50 (50% hemolysis) (human red blood cells): about 80 μM; Activity (MIC) P. aeruginosa (P. aeruginosa E411-17; E411-17): 4 µM
7 | RWWKKWWGK-NH2 [RK-9+] | >32 | 8 | 4 | 32 | >32 | > 400 | 8 to 16 | 32 | 4 | 8 | > 100 |  |  | Antimicrobial activity (MIC) (S. aureus USA300 LAC; USA300): 16 to 32 µM; Antimicrobial activity (MIC) S. aureus USA300 (S. aureus USA300 LAC; USA300): 8 to 16 µM; Antimicrobial activity (MIC) (P. aeruginosa E411-17; E411-17, pH 7.22): 8 to 16 µM; MIC (P. aeruginosa E411-17; E411-17): >32 µM; MIC (S. epidermidis 1457): 16 µM
8 | VWNRLFRKWR-NH2 [RetroRIK-10++] |  |  |  |  |  |  |  |  |  |  |  | >32 | 16 | 
